Consider one compound from paper PMC9610999, “Itraconazole-Induced Increases in Gilteritinib Exposure Are Mediated by CYP3A and OATP1B” (Molecules, 2022).

One data set addresses T1, human OATP1B1 (SLCO1B1) (Homo sapiens, UniProt Q9Y6L6).
T1 construct: expressed in transfected cells; host or cells: HEK293
T1 sequence (Q9Y6L6 1-691): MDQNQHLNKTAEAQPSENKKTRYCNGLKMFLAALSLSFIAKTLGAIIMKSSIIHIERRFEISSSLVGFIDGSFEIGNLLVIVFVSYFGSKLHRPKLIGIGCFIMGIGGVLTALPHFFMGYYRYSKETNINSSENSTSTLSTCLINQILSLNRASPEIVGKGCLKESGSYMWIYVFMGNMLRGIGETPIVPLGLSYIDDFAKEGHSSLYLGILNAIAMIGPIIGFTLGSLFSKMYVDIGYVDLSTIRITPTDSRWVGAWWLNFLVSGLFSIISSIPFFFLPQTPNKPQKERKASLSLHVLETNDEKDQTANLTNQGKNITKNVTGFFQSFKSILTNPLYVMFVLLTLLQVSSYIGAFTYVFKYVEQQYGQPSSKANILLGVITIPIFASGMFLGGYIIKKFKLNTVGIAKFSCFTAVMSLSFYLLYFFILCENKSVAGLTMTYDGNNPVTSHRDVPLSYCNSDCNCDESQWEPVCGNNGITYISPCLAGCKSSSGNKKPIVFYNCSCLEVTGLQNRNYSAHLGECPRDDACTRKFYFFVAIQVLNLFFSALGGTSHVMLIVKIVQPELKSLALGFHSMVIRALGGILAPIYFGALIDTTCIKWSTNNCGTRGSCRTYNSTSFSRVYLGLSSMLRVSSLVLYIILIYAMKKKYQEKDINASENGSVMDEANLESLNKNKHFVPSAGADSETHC
Briefly: Transport inhibition assay: EβG uptake in OATP1B1 overexpressing HEK293 cells. Type of data set: cell-based. How it is done:
Human embryonic kidney (HEK293) cells stably transfected with human OATP1B1 (SLCO1B1) cDNA, or an empty control vector were established and cultured as previously described. Cells were maintained in DMEM supplemented with 10% FBS, 50 µg/mL hygromycin B, 15 µg/mL blasticidin, and maintained in a humidified incubator at 37 °C with 5% CO2. Prior to plating, 24-well tissue culture plates (Thermo Fisher Scientific) were coated with poly-d-lysine. Seeding media was prepared using phenol red-free DMEM with 10% FBS with no selection agents. To the seeding media, […] of doxycycline was added to induce expression of OATP1B1.
OATP1B1 overexpressing cells and vector control cells were plated in 24-well tissue culture plates at a volume of 0.5 mL (containing 2 × 10^6 cells/mL) per well. Plates were returned to an incubator at 37 °C and transport assays were conducted 24 h later. Transport activity was measured using EβG, a prototypical substrate of OATP1B1. Experiments were conducted using phenol red- and serum-free DMEM. Intracellular levels of total radioactivity originating from EβG were assessed by liquid scintillation counting. The resulting counts were normalized to total protein levels as determined by a Pierce protein assay. The influence of gilteritinib, itraconazole, keto-itraconazole, or hydroxy-itraconazole on OATP1B1-mediated transport was assessed following a 15 min pre-incubation at various concentrations of test inhibitors followed by co-incubation of test inhibitors with EβG. Inhibition of transport activity by gilteritinib was determined by comparing the accumulation of EβG in the presence of gilteritinib, itraconazole, keto-itraconazole, or hydroxy-itraconazole to that of EβG in the presence of only the control vehicle, DMSO. The final concentration of DMSO in media was less than 0.2% in all in vitro experiments.

The target in the next data set is T2, OATP1B1 (Homo sapiens, UniProt Q9Y6L6).
T2 construct: expressed in transfected cells; host or cells: HEK293
T2 sequence (Q9Y6L6 1-691): T1 sequence (Q9Y6L6 1-691)
Briefly: Washout assay: recovery of OATP1B1 function (EβG uptake). Format: cell-based. The settings on record: within a 1-h period after 15 min treatment with gilteritinib 15 µM; 0.2 μM EβG. As for the experimental part: OATP1B1 overexpressing cells and vector control cells were plated in 12-well plates 24 h prior to experimentation. Cells were then washed with warm PBS and pre-incubated for 15 min with 0.5 mL DMSO or gilteritinib (15 μM) in DMEM at 37 °C. After pre-incubation, the supernatant was removed, and cells were washed with PBS. Compound-free medium was then added, and the cells were further incubated for periods of 15, 30, and 60 min. Next, the medium was removed, and cells were incubated with 0.5 mL of 0.2 μM EβG for 15 min. After that, the medium was removed and the cells were washed three times with ice-cold PBS, and 1 N NaOH was added to the wells to stop the rection. The next day 1 M HCL was added to each well and substrate concentrations were assessed using liquid scintillation counting. The resulting data were normalized to total protein as determined by a Pierce protein assay.

On the set-up of data set [1]: method as in PMID 32546970. The settings on record: rats; cited from earlier work.
For data set [2] the following is noted: human, in vivo; cited from earlier work.

For the compound `CCc1nc(C(N)=O)c(Nc2ccc(N3CCC(N4CCN(C)CC4)CC3)c(OC)c2)nc1NC1CCOCC1` [Gilteritinib], the “Mechanism of inhibition of OATP1B transport of EβG” value on human OATP1B1 (SLCO1B1) (Dixon plot) is given as “noncompetitively inhibits”. In addition, the concentration for half-maximal inhibition (IC50) at human OATP1B1 (SLCO1B1) (OATP1B1 overexpressing HEK293 cells vs vector control, radiolabeled EβG, 15 min pre-incubation, read-out: IC50, inhibition of OATP1B1-mediated cellular accumulation of EβG) came out at 2230 nM. The inhibition constant (Ki) on human OATP1B1 (SLCO1B1) (gilteritinib 0.3–8.3 µM, EβG 0.2, 2, 20 µM, estimated, read-out: Ki (inhibition constant), EβG uptake by OATP1B1, Dixon plot) was 1600 nM. The “OATP1B1 transport recovered after washout” value on OATP1B1 is 75%. In data set [1], the “Increase in gilteritinib exposure by itraconazole” value is reported as 1.4 fold. Besides, the “Increase in gilteritinib exposure when co-administered with itraconazole” value in data set [2] is on record as 2.2 fold.

The IC50 is the concentration that gives 50% inhibition. What is called Ki is a dissociation constant, usually derived from enzyme kinetics or from competition with a known ligand.
